Results: US20250091992A1, “NOVEL COMPOUNDS AND USES THEREOF” (KANNA HEALTH LIMITED, priority 2021, published 2025)

Tests used:
[1] = biological target: human recombinant PDE-4B1 (Homo sapiens, UniProt Q07343); assay: PDE4-B1 assay (Compounds of Formula I), SPA; type: biochemical; conditions: 4-parameter logistical fit, two technical replicates
Protocol: (§1) 20 mins after addition of human recombinant PDE-4B1 (1.2 IEU) or PDE-4D2 (1.5 IEU), SPA beads were added and incubated at 22° C. for a further 30 mins. [^3H]5′AMP was quantified by a standard scintillation counting method.

[2] = biological target: human recombinant PDE-4D2 (Homo sapiens, UniProt Q08499); assay: PDE4-D2 assay (Compounds of Formula I), SPA; type: biochemical; conditions: 4-parameter logistical fit, two technical replicates
Chain of human recombinant PDE-4D2 (Q08499 303-809): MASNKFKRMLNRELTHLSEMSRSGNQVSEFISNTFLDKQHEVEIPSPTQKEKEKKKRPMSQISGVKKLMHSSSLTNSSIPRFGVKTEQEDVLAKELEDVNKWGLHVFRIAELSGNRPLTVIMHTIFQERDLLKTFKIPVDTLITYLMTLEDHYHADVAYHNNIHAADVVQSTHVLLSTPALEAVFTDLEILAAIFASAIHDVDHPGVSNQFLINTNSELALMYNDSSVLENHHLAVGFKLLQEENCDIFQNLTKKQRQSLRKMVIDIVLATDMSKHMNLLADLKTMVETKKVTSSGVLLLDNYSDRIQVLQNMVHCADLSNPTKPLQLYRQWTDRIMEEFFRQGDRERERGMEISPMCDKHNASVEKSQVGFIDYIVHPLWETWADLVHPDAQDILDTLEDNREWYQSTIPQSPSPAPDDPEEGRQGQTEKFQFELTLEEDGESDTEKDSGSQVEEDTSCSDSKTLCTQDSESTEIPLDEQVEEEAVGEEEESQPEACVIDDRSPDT
Protocol: as §1

[3] = biological target: human serotonin transporter (Homo sapiens, UniProt P31645);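 further: Read-out: uptake of tritium-labelled serotonin, measured by scintillation counting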
Chain of human serotonin transporter (P31645 whole entry): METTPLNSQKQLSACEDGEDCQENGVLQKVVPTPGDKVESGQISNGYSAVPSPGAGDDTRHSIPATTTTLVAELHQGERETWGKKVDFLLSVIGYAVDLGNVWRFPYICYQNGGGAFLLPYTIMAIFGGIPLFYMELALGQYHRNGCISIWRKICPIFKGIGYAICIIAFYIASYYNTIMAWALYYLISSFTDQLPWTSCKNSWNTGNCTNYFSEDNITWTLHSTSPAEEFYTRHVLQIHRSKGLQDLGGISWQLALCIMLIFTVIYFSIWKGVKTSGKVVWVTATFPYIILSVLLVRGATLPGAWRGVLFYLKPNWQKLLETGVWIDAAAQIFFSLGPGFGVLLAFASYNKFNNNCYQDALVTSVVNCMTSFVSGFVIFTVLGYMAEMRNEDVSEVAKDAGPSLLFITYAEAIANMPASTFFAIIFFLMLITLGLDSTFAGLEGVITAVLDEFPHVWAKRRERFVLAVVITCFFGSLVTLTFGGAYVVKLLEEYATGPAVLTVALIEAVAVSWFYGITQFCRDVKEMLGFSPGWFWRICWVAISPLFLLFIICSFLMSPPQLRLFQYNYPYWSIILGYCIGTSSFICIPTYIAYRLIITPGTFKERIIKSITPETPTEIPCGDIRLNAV
Protocol: Following incubation, [^3H] serotonin uptake was quantified by a standard scintillation counting method.

[4] = biological target: T1, hSERT (Homo sapiens, UniProt P31645); assay: SERT assay (Compounds of Formula II), transporter uptake assay kit; type: cell-based
T1 construct: expressed in transfected cells
T1 sequence (P31645 whole entry): as above
Protocol: SERT assays were performed using a standard transporter uptake assay kit, (Molecular devices, (R8174)). In short, test compounds (10 nM-30 μM), reference compound or vehicle control were added to cells stably expressing hSERT (20,000/well) in assay buffer containing HBSS (20 mM) and BSA (0.1% (w/v)) for 30 mins at 30° C. Assay plates were incubated in the presence of dye for a further 60 mins at 37° C. and intracellular fluorescence intensity was determined.

[5] = biological target: T2, PDE-4A1A (Homo sapiens, UniProt P27815); assay: PDE-41A assay (Compounds of Formula II), AMP-Glo; type: biochemical
T2 construct: purchased Sigma SRP0262
T2 sequence (P27815 1-647 isoform P27815-4): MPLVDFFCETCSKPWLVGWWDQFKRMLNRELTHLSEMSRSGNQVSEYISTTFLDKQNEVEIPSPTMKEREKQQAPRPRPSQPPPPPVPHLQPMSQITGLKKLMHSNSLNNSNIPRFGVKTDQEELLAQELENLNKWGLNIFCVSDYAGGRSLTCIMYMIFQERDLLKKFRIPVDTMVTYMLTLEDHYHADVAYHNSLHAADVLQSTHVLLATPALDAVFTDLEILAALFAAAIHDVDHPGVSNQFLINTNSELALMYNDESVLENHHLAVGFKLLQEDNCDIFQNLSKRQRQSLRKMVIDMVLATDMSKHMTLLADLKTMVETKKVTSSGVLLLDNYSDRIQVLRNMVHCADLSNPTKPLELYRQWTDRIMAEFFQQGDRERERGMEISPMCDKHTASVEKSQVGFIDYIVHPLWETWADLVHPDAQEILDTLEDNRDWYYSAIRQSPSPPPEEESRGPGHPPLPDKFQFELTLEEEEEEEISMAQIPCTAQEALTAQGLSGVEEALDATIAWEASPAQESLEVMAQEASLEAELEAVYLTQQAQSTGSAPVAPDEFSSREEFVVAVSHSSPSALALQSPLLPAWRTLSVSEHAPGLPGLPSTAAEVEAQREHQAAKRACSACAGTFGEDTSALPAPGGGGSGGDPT
Protocol: PDE-41A assays were performed using the AMP-Glo™ Assay Kit, (Promega-V5012) human recombinant […] (Sigma, SRP0262) according to recommended protocols. […]

Chain of human recombinant PDE-4B1 (Q07343 whole entry): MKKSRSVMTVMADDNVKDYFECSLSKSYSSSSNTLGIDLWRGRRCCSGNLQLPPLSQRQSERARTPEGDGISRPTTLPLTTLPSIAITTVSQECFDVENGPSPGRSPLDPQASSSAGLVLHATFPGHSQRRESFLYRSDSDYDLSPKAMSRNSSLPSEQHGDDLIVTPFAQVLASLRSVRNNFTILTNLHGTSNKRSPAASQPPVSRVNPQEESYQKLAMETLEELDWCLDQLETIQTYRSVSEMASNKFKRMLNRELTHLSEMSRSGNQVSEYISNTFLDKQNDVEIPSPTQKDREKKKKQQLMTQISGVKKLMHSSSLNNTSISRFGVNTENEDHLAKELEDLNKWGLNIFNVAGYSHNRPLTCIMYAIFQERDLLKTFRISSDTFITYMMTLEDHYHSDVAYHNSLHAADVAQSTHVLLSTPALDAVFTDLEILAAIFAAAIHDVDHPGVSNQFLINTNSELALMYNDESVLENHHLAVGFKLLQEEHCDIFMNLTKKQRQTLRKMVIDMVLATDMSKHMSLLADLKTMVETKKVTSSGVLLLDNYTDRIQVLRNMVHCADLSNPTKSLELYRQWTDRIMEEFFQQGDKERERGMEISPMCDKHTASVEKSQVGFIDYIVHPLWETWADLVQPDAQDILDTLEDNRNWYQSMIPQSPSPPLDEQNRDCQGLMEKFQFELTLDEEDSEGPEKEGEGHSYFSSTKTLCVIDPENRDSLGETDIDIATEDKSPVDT

| Compound | IC50 [1] | IC50 [2] | IC50 [3] | inhibition at 1 µM [4] | inhibition at 3 µM [4] | inhibition at 30 µM [5] | inhibition at 100 µM [5] |
| --- | --- | --- | --- | --- | --- | --- | --- |
| CCOc1cc([C@@]23CCC(=O)C[C@@H]2N(C)CC3)ccc1OCC1CC1 [Compound 35] | > 30 µM | > 30 µM | 0.2 µM |  |  |  |  |
| CN1CC[C@]2(c3ccc(OCC4CC4)c(OCC4CC4)c3)CCC(=O)C[C@H]12 [Compound 36] | > 30 µM | > 30 µM | 0.4 µM |  |  |  |  |
| CCCCOc1cc([C@@]23CCC(=O)C[C@@H]2N(C)CC3)ccc1OCC1CC1 [Compound 37] | > 30 µM | > 30 µM | 0.8 µM |  |  |  |  |
| C=CCOc1cc([C@@]23CCC(=O)C[C@@H]2N(C)CC3)ccc1OCC1CC1 [Compound 38] | > 30 µM | > 30 µM | 0.4 µM |  |  |  |  |
| CN1CC[C@]2(c3ccc(OCC4CC4)c(OC4CCCC4)c3)CCC(=O)C[C@H]12 [Compound 39] | > 30 µM | > 30 µM | 4.5 µM |  |  |  |  |
| COc1ccc([C@]23CCC(=O)C[C@H]2N(C)CC3)cc1OC [Compound 45] |  | < 3 µM |  |  |  |  |  |
| COc1ccc([C@@]23CC[C@@H](OC(=O)CCC(=O)O)C[C@@H]2N(C)CC3)cc1OC [Compound 46] |  |  |  | 81% | 94% | 53% | 79% |
| COc1ccc([C@@]23CC[C@@H](OC(=O)CCCC(=O)O)C[C@@H]2N(C)CC3)cc1OC [Compound 47] |  |  |  | 90% | 94% | 40% | 88% |
| COc1ccc([C@@]23CC[C@@H](OC(=O)CN)C[C@@H]2N(C)CC3)cc1OC [Compound 48] |  |  |  | 93% | 101% | -8% | 48% |
| COc1ccc([C@@]23CC[C@@H](OC(=O)C(C)N)C[C@@H]2N(C)CC3)cc1OC (some centres unmarked) [Compound 49] |  |  |  | 95% | 97% | 87% | 86% |
| CCC(=O)O[C@@H]1CC[C@@]2(c3ccc(OC)c(OC)c3)CCN(C)[C@H]2C1 [Compound 50] |  |  |  | 98% | 98% | 92% | 101% |
| COc1ccc([C@@]23CC[C@@H](OC(=O)C(C)C)C[C@@H]2N(C)CC3)cc1OC [Compound 51] |  |  |  | 99% | 98% | 95% | 99% |
| COc1ccc([C@@]23CC[C@@H](OC(=O)c4ccccc4)C[C@@H]2N(C)CC3)cc1OC [Compound 52] |  |  |  | 91% | 91% | 97% | 99% |
| COc1ccc([C@@]23CC[C@@H](OC(=O)c4ccc[nH]4)C[C@@H]2N(C)CC3)cc1OC [Compound 53] |  |  |  | 99% | 98% | 94% | 97% |
| COc1ccc([C@@]23C=C[C@@H](OC(=O)CCC(=O)O)C[C@@H]2N(C)CC3)cc1OC [Compound 54] |  |  |  | 78% | 98% | 98% | 101% |
| COc1ccc([C@@]23C=C[C@@H](OC(=O)CCCC(=O)O)C[C@@H]2N(C)CC3)cc1OC [Compound 55] |  |  |  | 67% | 97% | 100% | 95% |
| COc1ccc([C@@]23C=C[C@@H](OC(=O)CN)C[C@@H]2N(C)CC3)cc1OC [Compound 56] |  |  |  | 86% | 99% | 74% | 102% |
| COc1ccc([C@@]23C=C[C@@H](OC(=O)C(C)N)C[C@@H]2N(C)CC3)cc1OC (some centres unmarked) [Compound 57] |  |  |  | 86% | 97% | 101% | 102% |
| CCC(=O)O[C@@H]1C=C[C@@]2(c3ccc(OC)c(OC)c3)CCN(C)[C@H]2C1 [Compound 58] |  |  |  | 98% | 98% | 103% | 100% |
| COc1ccc([C@@]23C=C[C@@H](OC(=O)C(C)C)C[C@@H]2N(C)CC3)cc1OC [Compound 59] |  |  |  | 99% | 97% | 100% | 100% |
| COc1ccc([C@@]23C=C[C@@H](OC(=O)c4ccccc4)C[C@@H]2N(C)CC3)cc1OC [Compound 60] |  |  |  | 92% | 95% | 98% | 100% |
| COc1ccc([C@@]23C=C[C@@H](OC(=O)c4ccc[nH]4)C[C@@H]2N(C)CC3)cc1OC [Compound 61] |  |  |  | 101% | 106% | 94% | 90% |
